Patent publication US20250230193A1, “CYCLIC COMPOUND HAVING SELECTIVE KRAS INHIBITORY EFFECT ON HRAS AND NRAS” (CHUGAI SEIYAKU KABUSHIKI KAISHA, priority 2022, published 2025)
*1 amine or outer side, *2 acyl side, *3 side chain or, on linkers, in order; H or OH if unused. Where a SMILES comes first, the peptide text is derived from it. Bridges are numbered along the chain shown (N, C = ends). [ ]: non-standard residue; d: D form. The star is where a group is joined. hPhe(3,5-F2-4-CF3) = N[C@@H](CCc1cc(F)c(C(F)(F)F)c(F)c1)C(=O)O; hPhe(3-Cl-4-CF3) = N[C@@H](CCc1ccc(C(F)(F)F)c(Cl)c1)C(=O)O; NPrPhe(4-CF3) = CCCN[C@@H](Cc1ccc(C(F)(F)F)cc1)C(=O)O; NPrPhe(4-Me) = CCCN[C@@H](Cc1ccc(C)cc1)C(=O)O; NMeGly(cPent) = CN[C@H](C(=O)O)C1CCCC1; Nva(3-Et) = CCC(CC)[C@H](N)C(=O)O; NMeD = CN[C@@H](CC(=O)O)C(=O)O; NMeL = CN[C@@H](CC(C)C)C(=O)O; X14 = N#CCN(CC(=O)[*:2])[*:1]; Pip = O=C(O)[C@@H]1CCCCN1; Morpholide = C1CN(*)CCO1; Ac5c = NC1(C(=O)O)CCCC1; Aze = O=C(O)[C@@H]1CCN1; Sar = CNCC(=O)O

Legend:
[1] = target: GDP-bound NRAS wild-type protein (Homo sapiens, UniProt P01111); assay: Binding to NRAS by surface plasmon resonance (SPR), Single Cycle Kinetics; details: SPR
[2] = target: GDP-bound HRAS wild-type protein (Homo sapiens, UniProt P01112); assay: Binding to HRAS by surface plasmon resonance (SPR), Single Cycle Kinetics; details: SPR
Sequence of GDP-bound HRAS wild-type protein (P01112 whole entry): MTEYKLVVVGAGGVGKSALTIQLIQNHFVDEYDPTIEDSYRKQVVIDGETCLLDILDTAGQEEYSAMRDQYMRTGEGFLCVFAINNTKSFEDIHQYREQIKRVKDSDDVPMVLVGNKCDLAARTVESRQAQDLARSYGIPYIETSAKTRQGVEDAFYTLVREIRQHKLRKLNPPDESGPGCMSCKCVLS

Sequence of GDP-bound NRAS wild-type protein (P01111 whole entry): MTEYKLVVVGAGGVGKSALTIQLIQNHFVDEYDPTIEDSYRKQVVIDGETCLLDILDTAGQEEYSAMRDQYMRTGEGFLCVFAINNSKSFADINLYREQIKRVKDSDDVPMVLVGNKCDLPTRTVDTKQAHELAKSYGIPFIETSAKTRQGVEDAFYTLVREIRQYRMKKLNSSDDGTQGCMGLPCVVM

## CCC[C@H]1C(=O)N[C@@H]([C@@H](C)CC)C(=O)N(C)CC(=O)N(C)[C@H]2C/C=C\CCN(C2=O)[C@@H](Cc2ccc(C(F)(F)F)cc2)C(=O)N(C)CC(=O)N[C@@H](CCc2ccc(C(F)(F)F)c(Cl)c2)C(=O)N2C[C@@H](C)C[C@H]2C(=O)NC2(CC(C)(C)C2)C(=O)N(C)[C@@H](C2CCCC2)C(=O)N(C)[C@H](C(=O)N(C)C)CC(=O)N1C [PP2270]
[1]; GDP-bound NRAS wild-type vs GDP-bound KRAS wild-type
  NRAS/KRAS (ratio of KD value with respect to NRAS to KD value with respect to KRAS): B (a compound having 3 or more and less than 10 is denoted as B)
[2]; GDP-bound HRAS wild-type vs GDP-bound KRAS wild-type
  HRAS/KRAS (ratio of KD value with respect to HRAS to KD value with respect to KRAS): B (a compound having 3 or more and less than 10 is denoted as B)

## CCCN1C(=O)CN(C)C(=O)CN(C)C(=O)[C@H](C(CC)CC)NC(=O)[C@H](CC(C)C)N(C)C(=O)C[C@@H](C(=O)N(C)C)N(C)C(=O)[C@H](C2CCCC2)N(C)C(=O)C2(CCCC2)NC(=O)[C@@H]2CCCN2C(=O)[C@H](CCc2cc(F)c(C(F)(F)F)c(F)c2)NC(=O)CN(C)C(=O)[C@@H]1Cc1ccc(C(F)(F)F)cc1 [PP0747] ([NMeL][Nva(3-Et)][Sar][Sar][NPrPhe(4-CF3)][Sar][hPhe(3,5-F2-4-CF3)]P[Ac5c][NMeGly(cPent)][NMeD]-NMe2; lactam N-11)
[1]
  NRAS/KRAS (ratio of KD value with respect to GDP-bound NRAS wild-type protein to KD value with respect to KRAS): B (a compound having 3 or more and less than 10 is denoted as B)
[2]
  HRAS/KRAS (ratio of KD value with respect to GDP-bound HRAS wild-type protein to KD value with respect to KRAS): C (A compound having a KD ratio of 0.1 or more and less than 3 is denoted as C)

## CC[C@H](C)[C@@H]1NC(=O)[C@@H]2CCC/C=C/c3ccc(cc3)C[C@@H](C(=O)N(C)CC(=O)N[C@@H](CCc3ccc(Cl)c(Cl)c3)C(=O)N3C[C@H](OC4CCC4)C[C@H]3C(=O)NC3(CC(C)(C)C3)C(=O)N(C)[C@@H](C3CCCC3)C(=O)N(C)[C@H](C(=O)N3CCCC3)CC(=O)N2C)N2CC/C=C\C[C@@H](C2=O)N(C)C(=O)CN(C)C1=O [PP3053]
[1]; GDP-bound wild-type proteins
  NRAS/KRAS (ratio of KD value with respect to GDP-bound NRAS wild-type protein to KD value with respect to KRAS): A (a compound having 10 or more and less than 20 is denoted as A)
[2]; GDP-bound wild-type proteins
  HRAS/KRAS (ratio of KD value with respect to GDP-bound HRAS wild-type protein to KD value with respect to KRAS): A (a compound having 10 or more and less than 20 is denoted as A)

## CCCN1C(=O)[C@@H]2CCN2C(=O)[C@@H]2CCCCN2C(=O)[C@H]([C@@H](C)CC)NC(=O)[C@H](CC(C)C)N(C)C(=O)C[C@@H](C(=O)N2CCOCC2)N(C)C(=O)[C@H](C2CCCC2)N(C)C(=O)C2(CCCC2)NC(=O)[C@@H]2CCCN2C(=O)[C@H](CCc2ccc(C(F)(F)F)c(Cl)c2)NC(=O)CN(C)C(=O)[C@@H]1Cc1ccc(C)cc1 [PP0070] ([NMeL]I[Pip][Aze][NPrPhe(4-Me)][Sar][hPhe(3-Cl-4-CF3)]P[Ac5c][NMeGly(cPent)][NMeD]-Morpholide; lactam N-11)
[1]
  NRAS/KRAS (ratio of KD for GDP-bound NRAS wild-type to KD for KRAS): C (A compound having a KD ratio of 0.1 or more and less than 3 is denoted as C)
[2]
  HRAS/KRAS (ratio of KD for GDP-bound HRAS wild-type to KD for KRAS): B (a compound having 3 or more and less than 10 is denoted as B)

## CCCN(C)C(=O)[C@@H]1CC(=O)N(C)[C@@H](C(C)C)C(=O)N[C@@H]([C@@H](C)CC)C(=O)N(C)CC(=O)N(C)[C@H]2C/C=C\CCN(C2=O)[C@@H](Cc2ccc(C(F)(F)F)cc2)C(=O)N(C)CC(=O)N[C@@H](CCc2ccc(C(F)(F)F)c(OC)c2)C(=O)N2C[C@H](OCC)C[C@H]2C(=O)NC2(CCC2)C(=O)N(C)[C@@H](C2CCCC2)C(=O)N1C [PP2020]
[1]; KD ratio, GDP-bound NRAS wild-type vs GDP-bound KRAS wild-type
  NRAS/KRAS (ratio of KD value for NRAS to KD value for KRAS): A (a compound having 10 or more and less than 20 is denoted as A)
[2]; KD ratio, GDP-bound HRAS wild-type vs GDP-bound KRAS wild-type
  HRAS/KRAS (ratio of KD value for HRAS to KD value for KRAS): A (a compound having 10 or more and less than 20 is denoted as A)

## CCCN1C(=O)[C@@H]2CCN2C(=O)CN(CC#N)C(=O)[C@H]([C@@H](C)CC)NC(=O)[C@H](CC(C)C)N(C)C(=O)C[C@@H](C(=O)N2CCOCC2)N(C)C(=O)[C@H](C2CCCC2)N(C)C(=O)C2(CCCC2)NC(=O)[C@@H]2CCCN2C(=O)[C@H](CCc2ccc(C(F)(F)F)c(Cl)c2)NC(=O)CN(C)C(=O)[C@@H]1Cc1ccc(C(F)(F)F)cc1 [PP0275] ([NMeL]I[X14][Aze][NPrPhe(4-CF3)][Sar][hPhe(3-Cl-4-CF3)]P[Ac5c][NMeGly(cPent)][NMeD]-Morpholide; lactam N-11)
[1]
  NRAS/KRAS (ratio of KD for GDP-bound NRAS wild-type to KD for KRAS): C (A compound having a KD ratio of 0.1 or more and less than 3 is denoted as C)
[2]
  HRAS/KRAS (ratio of KD for GDP-bound HRAS wild-type to KD for KRAS): C (A compound having a KD ratio of 0.1 or more and less than 3 is denoted as C)

## CC[C@H](C)[C@@H]1NC(=O)[C@@H]2CCCCCc3ccc(cc3)C[C@@H](C(=O)N(C)CC(=O)N[C@@H](CCc3ccc(C(F)(F)F)c(OC)c3)C(=O)N3C[C@H](OC(C)C)C[C@H]3C(=O)NC3(CC(C)(C)C3)C(=O)N(C)[C@@H](C3CCCC3)C(=O)N(C)[C@H](C(=O)N(C)C)CC(=O)N2C)N2CC/C=C\C[C@@H](C2=O)N(C)C(=O)CN(C)C1=O [PP3072]
[1]; GDP-bound wild-type proteins
  NRAS/KRAS (ratio of KD value with respect to GDP-bound NRAS wild-type protein to KD value with respect to KRAS): A (a compound having 10 or more and less than 20 is denoted as A)
[2]; GDP-bound wild-type proteins
  HRAS/KRAS (ratio of KD value with respect to GDP-bound HRAS wild-type protein to KD value with respect to KRAS): B (a compound having 3 or more and less than 10 is denoted as B)
